Test results published in patent EP2924045A1, “New agents for the treatment of cancer” (Medizinische Universität Wien, priority 2014, dated 2015).

Assays:
[1] = Stability test in minimal essential medium; assay type: physicochemical
cell viability = assay: MTT-based cell viability under normoxic and hypoxic conditions; details: 72 h treatment
Experimental: (§1) Cells were plated (2x10^3 cells/well) in 96-well plates and allowed to recover for 24 h. Subsequently, the dissolved drugs were added. After 72 h exposure, the proportion of viable cells was determined by MTT assay following the manufacturer's recommendations (EZ4U, Biomedica, Vienna, Austria). Cytotoxicity was expressed as IC50 values calculated from full dose-response curves using Graph Pad Prism software.
(§2) Cells were plated in 96- or 6-well plates, respectively, in an HERA cell 150i (Thermo Scientific) with at 1% O2/5% CO2 level for indicated time points (72 h and 4 h for MTT assays and protein isolation, respectively) before analysis/harvesting.
As a first step, the anticancer activity of the novel Co(III) complex was tested in comparison to the metal-free ligand under normoxic and hypoxic conditions as shown in Figures 5 and 6A after 72 h treatment cell viability was measured using a MTT-based system. Values given are means ± standard deviation (SD) of one representative experiment performed in triplicates (Statistical analysis: t-test; ***p< 0.001 ^a: difference between L2 and 1a; ^b: difference between 1a normoxia and 1a hypoxia).

EGFR = assay: Western blot of EGFR inhibition in A431 and Calu3 cells under normoxia and hypoxia; assay type: cell-based; details: 4 h treatment, EGF 50 ng/ml for 15 min
Experimental: as §2
Proteins were isolated, resolved by SDS/PAGE, and transferred onto a polyvinylidenedifluoride membrane for Western blotting by routine methods. The following antibodies were used: EGFR, pEGFR (Tyr1068), ERK1/2 (p44/42 MAPK), and pERK (Thr202/Tyr204) (all polyclonal rabbit - Cell Signaling Technology, Beverly, MA, USA). β-actin was monoclonal mouse AC-15 (Sigma). All primary antibodies were used in 1:1000 dilutions. Additionally, horseradish peroxidase-labelled secondary antibodies from Santa Cruz Biotechnology were used at working dilutions of 1:10000.

A431 xenografts = assay: A431 xenograft tumour growth in SCID mice; assay type: in vivo; details: 5 mg/kg i.v. or 25 mg/kg i.p.; efficacy comparable to erlotinib, especially upon intraperitoneal application
Source text: (§3) Six- to 8-week-old female CB-17 scid/scid (SCID) mice were purchased from Harlan Laboratories (San Pietro al Natisone, Italy). The animals were kept in a pathogen-free environment and every procedure was done in a laminar airflow cabinet. The experiments were done according to the regulations of the Ethics Committee for the Care and Use of Laboratory Animals at the Medical University Vienna, The U.S. Public Health Service Policy on Human Care and Use of Laboratory Animals as well as the United Kingdom Coordinating Committee on Cancer Prevention Research's Guidelines for the Welfare of Animals in Experimental Neoplasia.
(§4) This is of interest, as Calu3 xenografts are characterized by a rather specific tumor histology, where small tumour islands are surrounded by murine fibroblasts. Consequently, in these xenografts a larger tumor volume might be necessary for the development of hypoxic conditions and, thus, activation of 1b.

Calu3 xenografts = assay: Calu3 xenograft tumour growth in SCID mice; assay type: in vivo; details: when a tumour size of more than 200 mm^2 was reached
Source text: as §3, §4

A431 = assay: MTT cytotoxicity assay, A431 cells; assay type: cell-based; details: Homo sapiens, A-431; MTT assay after 72 h treatment; wild-type EGFR-overexpressing erlotinib-sensitive A431; read-out: Inhibition of Cell Growth (IC50 µM) A431
Experimental: Cell cultures were periodically checked for Mycoplasma contamination.
Subsequently, the dissolved drugs were added. […] Cytotoxicity was expressed as IC50 values calculated from full dose-response curves using Graph Pad Prism software.

H1975 = assay: MTT cytotoxicity assay, H1975 cells; assay type: cell-based; details: Homo sapiens, NCI-H1975; MTT assay after 72 h treatment; H1975 with resistance-conferring EGFR mutation T790M; read-out: Inhibition of Cell Growth (IC50 µM) H1975
Experimental: The human NSCLC cell lines A431 (wt EGFR-overexpressing and erlotinib-sensitive) and H1975 (EGFR mutation at L858R as well as T790M and erlotinib-resistant) were purchased from American Type Culture Collection (ATCC), Rockville, MD, USA and cultivated unless otherwise indicated in humidified incubators (37°C, 21% O2, 5% CO2) in RPMI 1640 medium containing 10% fetal calf serum (PAA, Linz Austria). Cell cultures were periodically checked for Mycoplasma contamination.
as §1
(§5) As a first step MTT assays (after 72 h treatment) performed in wild-type EGFR-overexpressing erlotinib-sensitive A431 and Calu3 cells as well as in H1975 cells, which harbour a resistance-conferring EGFR mutation T790M (Table 1). […] Only in Calu3 cells activity in the low µM range was observed. In contrast, L2 containing the smallest chelating moiety had IC50 values in the low µM range in both erlotinib-responsive models. […] Table 1. Anticancer activity (IC50 values)

Calu3 = assay: MTT cytotoxicity assay, Calu3 cells; assay type: cell-based; details: Homo sapiens, Calu-3; MTT assay after 72 h treatment; wild-type EGFR-overexpressing erlotinib-sensitive Calu3; read-out: Inhibition of Cell Growth (IC50 µM) Calu3
Experimental: as §1, §5

EGFR signaling pathway = assay: Western blot of EGFR signaling (pERK, pEGFR) in EGF-stimulated cells; assay type: cell-based; details: EGF-stimulated cells (HCC827 per Fig. 3), 4 h drug incubation, Western blotting

| stable in minimal essential medium [1] | Compound | IC50 (A431) [µM] | IC50 (H1975) [µM] | IC50 (Calu3) [µM] | further results |
| --- | --- | --- | --- | --- | --- |
| at least 24 h | CC(=O)C=C(C)[O-].CC(=O)C=C(C)[O-].F[P-](F)(F)(F)(F)F.NCCNc1ccc2ncnc(Nc3cccc(Br)c3)c2c1.[Co+3] [Compound 1a, Bis(2,4-pentanedionato) N^6-(2-aminoethyl)-N^4-(3-bromophenyl) quinazoline-4,6-diamine cobalt(III) hexafluorophosphate] |  |  |  | anticancer activity, hypoxia (cell viability; hypoxia (1% O2)): significantly increased; anticancer activity (cell viability), normoxic conditions (cell viability; normoxic conditions, up to the highest tested concentration of 25 µM): widely inactive; EGFR inhibitory potential, hypoxia (EGFR; hypoxia): potent activity similar to the metal-free ligand L2; EGFR inhibitory potential, normoxic conditions (EGFR; normoxic conditions): distinctly reduced |
| at least 24 h | CC(=O)C=C(C)[O-].CC(=O)C=C(C)[O-].NCCNc1ccc2ncnc(Nc3cccc(Br)c3)c2c1.[Cl-].[Co+3] [Compound 1b, Bis(2,4-pentanedionato) N^6-(2-aminoethyl)-N^4-(3-bromophenyl) quinazoline-4,6-diamine cobalt(III) chloride] |  |  |  | tumor growth of A431 xenografts (A431 xenografts): potently inhibited tumor growth; tumor growth of Calu3 xenografts (Calu3 xenografts): induced distinct tumor regression |
|  | Brc1cccc(Nc2ncnc3ccc(N=Cc4ccccn4)cc23)c1 [Compound L1, N^4-(3-bromophenyl)-N^6-(pyridin-2-ylmethylene) quinazoline-4,6-diamine] | > 25 | 20.4 ± 3.8 | 3.5 ± 0.08 |  |
|  | Cl.Cl.NCCNc1ccc2ncnc(Nc3cccc(Br)c3)c2c1 [Compound L2, N^6-(2-aminoethyl)-N^4-(3-bromophenyl)quinazoline-4,6-diamine dihydrochloride] | 9.15 ± 0.47 | 15.5 ± 2.18 | 2 ± 0.52 | inhibitory effects on ERK and EGFR phosphorylation levels (EGFR signaling pathway): most potent EGFR inhibitor with activity similar to erlotinib |
|  | C#Cc1cccc(Nc2ncnc3cc(OCCOC)c(OCCOC)cc23)c1 [erlotinib, reference compound] |  | > 25 | 0.74 ± 0.02 |  |
